One may read the IC50 as the concentration that inhibits the measured activity by half. A word on the melting point: it is the temperature, or range, at which the solid turns liquid.

The results in this text go back to patent US6787653B2, “Preparation process of biphenylcarboxylic acid amide derivatives” (Kowa Co., Ltd., priority 2002, dated 2004).

Structures can show the parent of a compound that is named as a salt.

One series concerns IgE antibody production by B cells. Description: Evaluation of inhibitory activity against IgE antibody production. The series is classed as cell-based. The note with it: B-cell; mouse (Balb/C) spleen B cells cultured with LPS and mouse IL-4; IgE in culture supernatant by ELISA. Here is the method:
After the spleen was enucleated from a mouse (Balb/C, male, aged 8 weeks) and shredded in 0.3 wt. % BSA/HBSS, single cells were obtained using a 200-mesh screen. The single cells were then hemolyzed by a 0.75 wt. % ammonium chloride·17 mmol/L Tris solution and a splenocyte suspension (1×10^7/mL) was prepared using RPMI 1640 medium/25 mmol/L HEPES/0.3 wt. % BSA. After the suspension was reacted with a rat anti-mouse Thy-1,2 monoclonal antibody (product of Cedarlane Co.) at 4° C. for 1 hour, the reaction mixture was centrifuged and the sediment cells were suspended again (1×10^7/mL, RPMI/HEPES/BSA). After the suspension-was reacted with a low-cytotoxic rabbit complement (product of Cedarlane Co.) at 37° C. for 1 hour, killed cells were removed by specific gravity centrifugation using lympholyte M (product of Cedarlane Co.) to obtain a B cell fraction as viable cells.
After culturing B cells ([…]) for one day together with LPS (E. coli 026:B6, product of DIFCO Co.) on a 96-well plate, mouse IL-4 (product of Genzyme Co.) was added. The mixture was cultured for further 7 days. Each test compound was added on the first day of the culture. After culturing, the amount of IgE antibody in a culture supernatant was assayed by ELISA, and the inhibitory activity of the test compound against production of an IgE antibody was calculated.
(In general: ELISA stands for enzyme-linked immunosorbent assay.)
`COc1cc(-c2ccc(C(=O)N3CCN(CCCN4CCN(C(=O)c5ccc(-c6cc(OC)c(OC)c(OC)c6)cc5)CC4)CC3)cc2)cc(OC)c1OC` [Example 1, 1,3-Bis[4-[4-(3,4,5-trimethoxyphenyl)benzoyl]-1-piperazinyl]propane Dihydrochloride] showed an IC50 of 0.1 µM.

Consider `COc1cc(-c2ccc(C(=O)N3CCN(CCCN4CCN(C(=O)c5ccc(-c6cc(OC)c(OC(C)C)c(OC)c6)cc5)CC4)CC3)cc2)cc(OC)c1OC(C)C` [Example 2, 1,3-Bis [4-[4-(4-isopropoxy-3,5-dimethoxyphenyl)benzoyl]-1-piperazinyl]propane Dimethanesulfonate], for which the IC50 came to 0.2 µM. Still for that read-out and setting: the value for `COc1cc(-c2ccc(C(=O)N3CCN(CCCN4CCN(C(=O)c5ccc(-c6cc(OC)c(SC)c(OC)c6)cc5)CC4)CC3)cc2)cc(OC)c1SC` [Example 3, 1,3-Bis[4-[4-(3,5-dimethoxy-4-methylthiophenyl)benzoyl]-1-piperazinyl]propane Dihydrochloride] was 0.08 µM; that for `CCOc1c(OC)cc(-c2ccc(C(=O)N3CCN(CCCN4CCN(C(=O)c5ccc(-c6cc(OC)c(OCC)c(OC)c6)cc5)CC4)CC3)cc2)cc1OC` [Example 4, 1,3-Bis[4-[4-(4-ethoxy-3,5-dimethoxyphenyl)benzoyl]-1-piperazinyl]propane Dimethanesulfonate] was 0.4 µM; that for `COc1cc(-c2ccc(C(=O)N3CCN(CCCN4CCN(C(=O)c5ccc(-c6cc(OC)c(C(C)=O)c(OC)c6)cc5)CC4)CC3)cc2)cc(OC)c1C(C)=O` [Example 5, 1,3-Bis[4-[4-(4-acetyl-3,5-dimethoxyphenyl)benzoyl]-1-piperazinyl]propane Dihydrochloride] was 0.6 µM. Turning to `CCCOc1c(OC)cc(-c2ccc(C(=O)N3CCN(CCCN4CCN(C(=O)c5ccc(-c6cc(OC)c(OCCC)c(OC)c6)cc5)CC4)CC3)cc2)cc1OC` [Example 6, 1,3-Bis[4-[4-(3,5-dimethoxy-4-propoxyphenyl)benzoyl]-1-piperazinyl]propane Dihydrochloride], inhibition was half-maximal at 0.3 µM (IC50).

Tested on in another series: not given
Assay: not given
Conditions: not given
Turning to `COc1cc(-c2ccc(C(=O)N3CCN(CCCN4CCN(C(=O)c5ccc(-c6cc(OC)c(C(C)=O)c(OC)c6)cc5)CC4)CC3)cc2)cc(OC)c1C(C)=O` (as salt: hydrochloride) [Example 5, 1,3-Bis[4-[4-(4-acetyl-3,5-dimethoxyphenyl)benzoyl]-1-piperazinyl]propane Dihydrochloride], the melting point was 240 °C (dec.). The same measure, in the same setting: the value for `CCCOc1c(OC)cc(-c2ccc(C(=O)N3CCN(CCCN4CCN(C(=O)c5ccc(-c6cc(OC)c(OCCC)c(OC)c6)cc5)CC4)CC3)cc2)cc1OC` (as salt: hydrochloride) [Example 6, 1,3-Bis[4-[4-(3,5-dimethoxy-4-propoxyphenyl)benzoyl]-1-piperazinyl]propane Dihydrochloride] was 266 °C (dec.).

With `COc1cc(-c2ccc(C(=O)N3CCN(CCCN4CCN(C(=O)c5ccc(-c6cc(OC)c(OC(C)C)c(OC)c6)cc5)CC4)CC3)cc2)cc(OC)c1OC(C)C` (as salt: methanesulfonate) [Example 2, 1,3-Bis [4-[4-(4-isopropoxy-3,5-dimethoxyphenyl)benzoyl]-1-piperazinyl]propane Dimethanesulfonate], the melting point is 235.5 °C (dec.).

As to `CCOc1c(OC)cc(-c2ccc(C(=O)N3CCN(CCCN4CCN(C(=O)c5ccc(-c6cc(OC)c(OCC)c(OC)c6)cc5)CC4)CC3)cc2)cc1OC` (as salt: methanesulfonate) [Example 4, 1,3-Bis[4-[4-(4-ethoxy-3,5-dimethoxyphenyl)benzoyl]-1-piperazinyl]propane Dimethanesulfonate], the melting point was 245 °C (dec.).
